For one data set, the target named is T1, TIR domain of MyD88 (Homo sapiens, UniProt Q99836).
T1 construct: MyD88 (residues 148–296); 6xHis; made in house; host or cells: E. coli BL21 (DE3)
In words: Fluorescence polarization (FP) assay, MyD88 TIR. The following applies: Cy5‐labeled TDIP1 50 nM, TIR domain diluted 1:1 from 40 µM, 30 min RT, ± SD, n = 3, read-out: apparent Kd against MyD88. The format is binding. On the procedure: (§1) Figure 6 Molecular characterization of TDIPs. (a) Co‐immunoprecipitation of TIR domains and TDIPs. Lysates of HEK293T cells expressing FLAG‐tagged TIR domains were incubated with the indicated TDIPs. Peptides were blotted with an antibody against the penetratin sequence. Created with BioRender.com. (b) Fluorescence polarization binding assay of the Cy5‐labeled TDIP1 against TIR domains of Myd88, TRAM, and MAL. Error bars represent ± SD (n = 3). (c) Human serum stability (half‐life) of the TDIPs was measured. The percentage of the remaining peptide was quantified up to 72 h. (d) The secondary structure of the selected TDIPs was determined by circular dichroism. […] (e) TDIP1 and its truncates were compared for inhibition of TLR4 signaling by using HEK‐Blue^TM hTLR4 cells. Data are presented as mean ± SD. ^****p < 0.0001. All significance is versus the LPS‐treated CP group. n.s., not significant.
(§2) Fluorescence polarization assays were carried out using a 384‐well black non‐binding microplate (Corning, CLS4514). TDIP1 peptide was synthesized by ANYGEN with N‐terminal Cy5 at >95% purity. The lyophilized peptide was reconstituted in ultrapure water (Invitrogen) to a concentration of 1 mM. The peptide was diluted with 10× PBS to make a final solution of 100 nM. […] After mixing the samples, the plate was incubated for 30 min at RT and read using an Infinite M1000 (Tecan, Mannedorf, Switzerland).
(In general: Polarisation of emitted light reports the rotation of a fluorescent probe.)

The nature of a further data set: Serum stability analysis. The format is in vitro ADME. Particulars: human serum (Sigma H4522), 1 mM peptide in water mixed 1:1 (v/v) with serum, 37 °C, 48 h; SDS‐PAGE, Coomassie band intensity (ImageJ). As for the experimental part: as §1
The first step of the serum stability analysis was performed as previously described^[ [60] ^] with a minor modification. Human serum (Sigma‐Aldrich, H4522) was thawed on ice and centrifuged at 18 000 × g for 10 min at 4 °C to remove lipids. The supernatant was incubated at 37 °C for 15 min to activate the proteins. Each peptide was prepared at a concentration of 1 mM in ultrapure water and mixed with human serum in a 1:1 (v/v) ratio. The mixed solutions were incubated at 37 °C for various periods (0, 1, 3, 6, 12, 24, 48, and 72 h). A mixture of ultrapure water and human serum was used as the blank. A total of 3 µg of the peptide was loaded on an SDS–polyacrylamide gel and stained with InstantBlue Coomassie Protein Stain (Abcam). The intensity of the remaining peptide bands was quantified using ImageJ and plotted.

A further data set deals with T2, TIR domain of TRAM (Homo sapiens, UniProt Q86XR7).
T2 construct: purified TIR domains of MyD88, TRAM, and MAL
In words: Fluorescence polarization (FP) assay, TRAM TIR. The format is binding. Particulars: Cy5‐labeled TDIP1 50 nM, TIR domain diluted 1:1 from 40 µM, 30 min RT, ± SD, n = 3, read-out: apparent Kd against TRAM. As for the experimental part:
as §1, §2

In another data set the target is T3, TIR domain of MAL (Homo sapiens, UniProt P58753).
T3 construct: MAL (residues 79–221); 6xHis; made in house; host or cells: E. coli BL21 (DE3)
Description: Fluorescence polarization (FP) assay, MAL TIR. The format is binding. The following applies: Cy5‐labeled TDIP1 50 nM, TIR domain diluted 1:1 from 40 µM, 30 min RT, ± SD, n = 3, read-out: apparent Kd against MAL. As for the experimental part:
as §1, §2

Data set [1] deals with polymicrobial sepsis model. Also noted: method as in PMID 18305095. Particulars: administration 3 h before or 6 h after CLP surgery; cited from earlier work. From the text: (§3) Treatment of macrophage cells with synthetic TDIPs containing a cell‐penetrating moiety suppressed TLR4‐dependent inflammatory pathways in a dose‐dependent manner. Moreover, the selected TDIPs exerted broad‐spectrum TLR‐inhibitory effects by inhibiting interactions between TIR domain‐containing proteins, which enhanced the therapeutic efficacy in the murine sepsis model. Although we applied TDIP simultaneously with LPS, the timing of TLR inhibitor administration remains a critical consideration. ...

On the set-up of data set [2]: method as in PMID 19661804. The following applies: possibly due to late administration; cited from earlier work.
Source text: as §3

Where no end group is shown, it is not given here.

We go through three compounds from publication PMC11714206, “Massively Parallel Screening of Toll/Interleukin‐1 Receptor (TIR)‐Derived Peptides Reveals Multiple Toll‐Like Receptors (TLRs)‐Targeting Immunomodulatory Peptides” (Advanced Science, 2024).

T2 sequence (Q86XR7 73-229 limits assumed): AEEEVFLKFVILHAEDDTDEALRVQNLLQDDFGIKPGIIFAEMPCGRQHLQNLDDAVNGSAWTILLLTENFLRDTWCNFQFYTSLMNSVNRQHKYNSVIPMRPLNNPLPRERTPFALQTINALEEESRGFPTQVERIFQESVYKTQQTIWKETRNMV
T1 sequence (Q99836 148-296): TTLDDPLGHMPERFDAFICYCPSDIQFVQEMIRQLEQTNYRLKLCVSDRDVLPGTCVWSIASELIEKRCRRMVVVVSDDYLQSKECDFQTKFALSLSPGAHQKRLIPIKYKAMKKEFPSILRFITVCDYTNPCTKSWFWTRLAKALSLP
T3 sequence (P58753 79-221): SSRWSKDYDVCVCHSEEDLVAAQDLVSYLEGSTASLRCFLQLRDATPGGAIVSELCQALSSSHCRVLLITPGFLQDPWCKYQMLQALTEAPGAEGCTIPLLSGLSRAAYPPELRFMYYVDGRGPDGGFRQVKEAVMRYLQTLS

As for “RQIKIWFQNRRMKWKKWFYERLVSLILRDTKV [TDIP1]”, the Kd on TIR domain of MyD88 worked out at 2800 ± 460 nM; on TIR domain of TRAM it was 1460 ± 110 nM; on TIR domain of MAL, 4490 ± 720 nM. For the same compound, the “remaining peptide after 48 h of incubation in human serum” value in the data set “Serum stability analysis” is listed as “up to 50%”.

On to `CCN(CC)CCCC(C)Nc1ccnc2cc(Cl)ccc12` (stereo not drawn) [chloroquine], for which the “survival in polymicrobial sepsis model” value in data set [1] is reported as “markedly improved survival”.

Consider `CCCCCC/C=C\CCCCCCCCCC(=O)N[C@H]1[C@H](OC[C@H]2O[C@H](OP(=O)(O)O)[C@H](NC(=O)CC(=O)CCCCCCCCCCC)[C@@H](OCCCCCCCCCC)[C@@H]2O)O[C@H](COC)[C@@H](OP(=O)(O)O)[C@@H]1OCC[C@@H](CCCCCCC)OC` [Eritoran tetrasodium], for which, in data set [2], the “outcome in clinical trials” value is listed as “failed in clinical trials”.
